Experimental data published in patent publication EP2242752B1, “[…] IMIDAZOLES AS HEPATITIS C VIRUS INHIBITORS” (Bristol-Myers Squibb Company, priority 2008, dated 2009).

Tested on: HCV 1b genotype
Test: HCV Replicon assay (HCV 16-377-neo replicon cells)
Assay type: cell-based
Details: Hepatitis C virus; HCV 1b genotype replicon cells; read-out: EC50 ranges against HCV 1b
How it was run: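 Inhibition measured in HCV 16-377-neo replicon cells, alongside replicon cells carrying the NS5A Y2065H resistance mutation.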

First: COC(=O)NC(C)(C)C(=O)N1[C@@H](C)CC[C@H]1c1ncc(-c2ccc(-c3ccc(-c4cnc([C@@H]5CC[C@H](C)N5C(=O)C(C)(C)NC(=O)OC)[nH]4)cc3)cc2)[nH]1 [Example M156, methyl (2-((2S,5S)-2-(4-(4'-(2-((2S,5S)-1-(2-((methoxycarbonyl)amino)-2-methylpropanoyl)-5-methyl-2-pyrrolidinyl)-1H-imidazol-4-yl)-4-biphenylyl)-1H-imidazol-2-yl)-5-methyl-1-pyrrolidinyl)-1,1-dimethy 1-2-oxoethyl)carbamate]
Second: COC(=O)N[C@@H](C)C(=O)N1[C@@H](C)CC[C@H]1c1nc(-c2ccc(-c3ccc(-c4c[nH]c([C@@H]5CC[C@H](C)N5C(=O)[C@H](C)NC(=O)OC)n4)cc3)cc2)c[nH]1 [Example M157, methyl ((1S)-2-((2S,5S)-2-(4-(4'-(2-((2S,5S)-1-(N-(methoxycarbonyl)-L-alanyl)-5-methyl-2-pyrrolidinyl)-1H-imidazol-4-yl)-4-biphenylyl)-1H-imidazol-2-yl)-5-methyl-1-pyrrolidinyl)-1-methyl-2-oxoethyl)carbamate]
The EC50 of the first is higher: 1 to 99 nM for the first, 0.001 to 0.999 nM for the second. The second is the more potent here.

`CC(C)CC(=O)N1[C@@H](C)CC[C@H]1c1nc(-c2ccc(-c3ccc(-c4c[nH]c([C@@H]5CC[C@H](C)N5C(=O)CC(C)C)n4)cc3)cc2)c[nH]1` [Example M158, 4,4'-(4,4'-biphenyldiyl)bis(2-((2S,5S)-5-methyl-1-(3-methylbutanoyl)-2-pyrrolidinyl)-1H-imidazole)] and `CC(C)[C@@H](O)C(=O)N1[C@@H](C)CC[C@H]1c1nc(-c2ccc(-c3ccc(-c4c[nH]c([C@@H]5CC[C@H](C)N5C(=O)[C@H](O)C(C)C)n4)cc3)cc2)c[nH]1` [Example M160, (2R,2'R)-1,1'-(4,4'-biphenyldiylbis(1H-imidazole-4,2-diyl((2S,5S)-5-methyl-2,1-pyrrolidinediyl)))bis(3-methyl-1-oxo-2-butanol)] fall in the same range of EC50: 1 to 99 nM for the first, 1 to 99 nM for the second.

First: C[C@H]1CC[C@@H](c2nc(-c3ccc(-c4ccc(-c5c[nH]c([C@@H]6CC[C@H](C)N6C(=O)Cc6ccccc6)n5)cc4)cc3)c[nH]2)N1C(=O)Cc1ccccc1 [Example M159, 4,4'-(4,4'-biphenyldiyl)bis(2-((2S,5S)-5-methyl-1-(phenylacetyl)-2-pyrrolidinyl)-1H-imidazole)]
Second: CC(C)[C@H](O)C(=O)N1[C@@H](C)CC[C@H]1c1nc(-c2ccc(-c3ccc(-c4c[nH]c([C@@H]5CC[C@H](C)N5C(=O)[C@@H](O)C(C)C)n4)cc3)cc2)c[nH]1 [Example M161, (2S,2'S)-1,1'-(4,4'-biphenyldiylbis(1H-imidazole-4,2-diyl((2S,5S)-5-methyl-2,1-pyrrolidinediyl)))bis(3-methyl-1-oxo-2-butanol)]
The EC50 of the first is lower: 0.001 to 0.999 nM for the first, 1 to 99 nM for the second. The first is the more potent here.

In the case of `CC(=O)N1[C@@H](C)CC[C@H]1c1nc(-c2ccc(-c3ccc(-c4cnc([C@@H]5CC[C@H](C)N5C(C)=O)[nH]4)cc3)cc2)c[nH]1` [Example M162, 2-((2S,5S)-1-acetyl-5-methyl-2-pyrrolidinyl)-4-(4'-(2-((2S,5S)-1-acetyl-5-methyl-2-pyrrolidinyl)-1H-imidazol-5-yl)-4-biphenylyl)-1H-imidazole], the EC50 is reported as 1 to 99 nM.
